Measurements as given in patent EP2929785A1, “A PLA inhibitor for inhibition of fat absorption” (PAT GmbH, priority 2014, dated 2015).

Experiments:
[1] = system: fatty acid uptake complex components; test: Transcript levels of fatty acid uptake complex components by semi-quantitative RT-PCR in HepG2 cells; format: cell-based, human; conditions: after 1 h of treatment, UDCA-LPE 50 µM (Fig. 6)
Text: The following forward and reverse primers (Sigma) were used for RT-PCR: iPLA2ß, [NT] (SEQ ID NO: 1) and [NT] (SEQ ID NO: 2); CD36, [NT] (SEQ ID NO: 3) and [NT] (SEQ ID NO: 4); […] (SEQ ID NO: 5) and [NT] (SEQ ID NO: 6); and caveolin-1, [NT] (SEQ ID NO: 7) and reverse [NT] (SEQ ID NO: 8). The primers for FATP4 and ß-actin (internal control) were the same as those previously used as described in […] et al. Am J Physiol Endocrinol Metab 2011; 301, 785-796.

[2] = system: wild-type hepatocytes; test: Fatty acid influx in primary hepatocytes from wild-type mice; format: cell-based; conditions: UDCA-LPE pretreatment (Fig. 4B)
[3] = system: HepG2 cells; test: Cellular steatohepatitis model in HepG2 cells; format: cell-based, human; conditions: UDCA-LPE 100 µM, 1 h, before or after 3 h 400 µM oleate:albumin (4:1)
Experimental: To induce steatosis, HepG2 cells were incubated with 400 µM oleate:albumin (4:1) for 3 h. The effect of UDCA-LPE (100 µM; 1 h) relative to PBS (control) was examined by pretreating cells before or after the 3- h fatty acid feeding period (with continuous fatty acid feeding thereafter). Fatty acid loading was examined by staining cells with Oil Red (Sigma) and by immunodetection of triglycerides (ab65336; Abcam, Cambridge, UK). In addition, the release of lactate dehydrogenase (LDH) (11644793001; Roche, Mannheim, Germany) was determined as a measure of apoptosis.

[4] = system: HepG2 cells; test: Fatty acid ([3H]oleate:albumin) influx in HepG2 cells; format: cell-based, human
[5] = system: iPLA2ß-/- hepatocytes; test: Fatty acid influx in primary hepatocytes from iPLA2ß-/- mice; format: cell-based; conditions: UDCA-LPE pretreatment (Fig. 4B)
[6] = molecular target: T1, fatty acid uptake complex in the DRM-PM consisting of CD36, FABPPM, caveolin1, and iPLA2ß (Homo sapiens, UniProt O60733); test: Disassembly of the fatty acid uptake complex in DRM-PM of HepG2 cells (immunoprecipitation, western blotting); format: cell-based
T1 construct: western blotting of DRM-PM isolated from these cells; endogenous in cells; host or cells: HepG2
T1 sequence (O60733 1-806): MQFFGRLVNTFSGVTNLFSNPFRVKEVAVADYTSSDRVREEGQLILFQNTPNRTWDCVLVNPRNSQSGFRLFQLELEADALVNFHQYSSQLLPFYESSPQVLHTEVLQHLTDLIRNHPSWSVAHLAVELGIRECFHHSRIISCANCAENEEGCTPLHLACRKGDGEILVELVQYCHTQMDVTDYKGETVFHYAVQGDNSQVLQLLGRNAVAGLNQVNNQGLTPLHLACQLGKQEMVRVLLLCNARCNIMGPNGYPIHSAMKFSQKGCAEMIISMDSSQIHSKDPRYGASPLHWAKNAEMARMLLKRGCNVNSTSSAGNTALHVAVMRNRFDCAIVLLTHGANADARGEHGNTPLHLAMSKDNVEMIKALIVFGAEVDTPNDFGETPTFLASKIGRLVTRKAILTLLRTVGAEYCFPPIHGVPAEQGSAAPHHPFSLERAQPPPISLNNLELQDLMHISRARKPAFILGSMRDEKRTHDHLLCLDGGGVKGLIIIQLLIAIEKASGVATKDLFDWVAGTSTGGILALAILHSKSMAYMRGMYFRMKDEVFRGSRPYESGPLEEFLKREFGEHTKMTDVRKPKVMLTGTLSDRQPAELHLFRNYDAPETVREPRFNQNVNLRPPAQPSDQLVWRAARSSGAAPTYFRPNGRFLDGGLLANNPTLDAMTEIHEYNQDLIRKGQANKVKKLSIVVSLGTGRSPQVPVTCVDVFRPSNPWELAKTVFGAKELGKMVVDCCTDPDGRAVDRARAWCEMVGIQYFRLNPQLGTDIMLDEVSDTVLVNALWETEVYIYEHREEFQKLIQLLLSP
Experimental: Detergent-resistant PM (DRM-PM) and non-DRM-PM fractions were isolated and characterized as previously described (Pohl J et al. Mol Biol Cell. 2005; 16: 24-31). Subcellular membrane fractions were prepared by centrifugation at 100,000 g for 1 h to obtain homogenate pellets. Nuclear extracts were obtained by centrifugation at 500 g for 5 min. Pellets were washed and resuspended in a buffer solution containing […] (pH 7.4), 100 mM NaCl, and 0.1 mM EDTA (Marzluff WF et al. Meth Cell Biol. 1987; 317-331)). The protein concentration was determined by the Bradford method (Bio- Rad, Munich, Germany).
Immunoblotting was performed according to a standard protocol as set out in Sun Q., et al. Biol Med (Maywood). 2012; 237: 178-185. […] To estimate the protein concentration a semi-quantitative densitometry was performed as described in Sun Q et al. (loc cit.). […]

IC50 ([4]; 1-h treatment with increasing concentrations (Fig. 2A), read-out: inhibition of fatty acid influx (IC50)): 47 µM
incubation time at which the fatty acid uptake complex began to disassemble ([6]; 50 µM): ≥ 30 min
concentration at which the fatty acid uptake complex began to disassemble ([6]; 30 min of incubation): ≥ 50 µM
Substance: ursodeoxycholatelysophosphatidylethanolamide [UDCA-LPE]
transcript levels of all fatty acid uptake complex components [1]: < 10 % of initial values
fatty acid influx [2]: inhibited
fatty acid-induced inflammation (LDH release) [3]: prevented or reversed
steatosis [3]: prevented or reversed
time until fatty acid influx reached a minimum ([4]; UDCA-LPE 100 µM (Fig. 1A)): 60 min
time after withdrawal until original fatty acid influx rate was restored ([4]; after UDCA-LPE withdrawal (Fig. 1A)): 6 h
Km ([4]; pretreatment UDCA-LPE 100 µM, 1 h or MAFP 150 µM, 1 h): 0.251 µM
Vmax of [3H]oleate influx ([4]; pretreatment UDCA-LPE 100 µM, 1 h or MAFP 150 µM, 1 h, control 61.80): 28.43 nmol/mg protein/min
fatty acid influx [5]: not
